Measured values from patent US7741348B2, “Bisheterocycle tandem compounds useful as antiviral agents, the uses thereof and the compositions comprising such compounds” (Shanghai Institute of Materia Medica, Chinese Academy of …, priority 2005, dated 2010).
Converted amounts (≈) assume the structure as drawn. Where two headings read alike, the source gives them in different places.

Key:
[1] = test system: MDCK (canine kidney) cells; assay: 50% toxicity concentration in the anti-influenza screen (MDCK cells); type: cell-based; details: 50% toxity concentration, Table 3-2 (influenza screen, MDCK cells)
Source text: (§1) 4. Screening of the samples for the anti-influenza virus A and B activity: MDCK (canine kidney) cells were used as the virus host to test the inhibition effect of the compounds of the present invention on the cytopathic effect (CPE) of the cells caused by the virus.

[2] = test system: influenza A virus; assay: Anti influenza A virus activity, cytopathic effect (CPE) in MDCK cells; type: cell-based
Source text: as §1

[3] = test system: Vero (African green monkey kidney) cells; assay: 50% toxicity concentration in the anti-herpes virus screen (Vero cells); details: 50% toxity concentration, Table 3-1 (herpes virus screen, Vero cells)
[4] = test system: herpes virus I (HSV-I); assay: Anti herpes virus I activity, cytopathic effect in Vero cells; type: cell-based; details: read-out: Anti herpes virus I HSV-I (IC50)
Source text: (§2) 3. Screening of the compounds for the anti-herpes virus I and II activity: Vero (African green monkey kidney) cells were used as virus host to test the inhibition effect of the compounds of the present invention on the cytopathic effect of the Vero cells caused by Herpes virus I and II.

[5] = test system: hepatitis B virus (HBV); assay: HBeAg secretion in HepG2.2.15 culture supernatant (ELISA); type: cell-based; details: HepG2.2.15 supernatant, eighth day, read-out: HBeAg secreation IC50
Source text: (§3) Hepatitis B virus (HBV) transgenic human hepatoma carcinoma cell, HepG2.2.15 cell line, can secrete hepatitis B virus particles (containing antigen and DNA) into supernatant when being cultured.
(§4) Under action of antiviral drugs, the contents of HBsAg, HBeAg and viral DNA secreted from cells into the supernatant were detected and are compared with the contents of control groups without drugs, so that the antiviral activity of the compounds of the present invention can be measured as well as the cytotoxic effect of compounds of the present invention. The value concentration of the compounds of the present invention which caused 50% of cells dead and was measured with MTT method was CC50; and the value concentration of the compounds of the present invention which inhibited the secretion of HBsAg and HBeAg detected by ELISA method and inhibited 50% of viral DNA replication detected by fluorescent quantification PCR method was IC50.
(§5) HepG2.2.15 cells were inoculated on a 96-well plate, and the compounds of the present invention were added next day. The medium and the compound solutions of the same concentration were renewed periodically. The culture supernatants were collected on the eighth day to be detected. MTT was added to the cells on the 96-well plate, and MTT dissolving liquid was added after 4 hours to be reacted overnight. OD570 was measured next day on microplate reader. And the cytotoxicity of the compounds of the present invention to the HepG2.2.15 cells, the effect of the compounds of the present invention on the growth of the cells, and the concentration of the compound of the present invention (CC50) causing 50% of the cells dead were estimated according to the OD values.
(§6) HBsAg and HBeAg were detected with assaying kits (purchased from Sino-American biotechnological company). Samples were added to the coated strip plate, and the same amount of enzyme labeled conjugate was added, after reacting under 37° C. for 1 hour, the plate was washed 5 times. Colorant solutions A and B were added, and the reaction was stopped after 15 minutes, and OD450/630 was measured. The half inhibition rate IC50 of the sample for the HBV antigen was calculated according to the OD values.

[6] = test system: hepatitis B virus (HBV); assay: HBV-DNA replication in HepG2.2.15 culture supernatant (fluorescent quantification PCR); type: cell-based; details: Hepatitis B virus; HepG2.2.15 supernatant, eighth day, fluorescent quantification PCR; read-out: DNA replication IC50
Source text: as §3, §4, §5
A suitable amount of culture supernatant was added into a same volume of virus extract solution, and was boiled after mixed uniformly, then centrifuged at 10000 rpm for 5 min under room temperature. A suitable amount of supernatant was collected for PCR amplification. Five HBV-DNA standard samples were used to set a standard curve. According to the obtained viral DNA replication value, the inhibition rates of HBV-DNA replication of the compound of the present invention at different concentrations were calculated, and then the half inhibition rates of the compounds were calculated to obtain IC50. For the samples that can not be calculated for IC50 value, they can be represented by ICX and given the corresponding concentration values.

[7] = test system: hepatitis B virus (HBV); assay: HBsAg secretion in HepG2.2.15 culture supernatant (ELISA); type: cell-based; details: HepG2.2.15 supernatant, eighth day, read-out: HBsAg secreation IC50
Source text: as §3, §4, §5, §6

[8] = Cytotoxicity to HepG2.2.15 cells (MTT method); type: cell-based; details: human, HepG2.2.15 cells (HBV-transgenic human hepatoma cells), 50% death concentration, eighth day
Source text: as §3, §4, §5

[9] = test system: herpes virus II (HSV-II); assay: Anti herpes virus II activity, cytopathic effect in Vero cells; type: cell-based; details: read-out: Anti herpes virus II HSV-II (IC50)
Source text: as §2

[10] = molecular target: T1, HIV-1 integrase (Human immunodeficiency virus type 1 group M subtype B, UniProt P04585); assay: HIV-1 integrase inhibition (ELISA, chain transfer); type: biochemical; details: enzyme inhibition
T1 construct: purified HIV-1 integrase
Protocol: 2. Screening of the compounds for the anti HIV-1 integrase activity: the synthesized 30 oligonucleotide (5′P-[…]-3′,3′-[…]-5′) was used as donor substrate, and the synthesized 20 oligonucleoside (5′-[…]-3′-biotin, biotin-3′-[…]-5′) was used as target substrate. On a 96-well plate, the donor substrate was added with purified HIV-1 integrase to conduct ELISA reaction. The product of chain transfer of target DNA was detected and stained in the biotin labeled alkaline phosphatase system, OD values were measured with microplate reader. Addition of the compounds of the present invention in the reaction system can be used to screen the inhibitor of the enzyme.

[11] = molecular target: HIV-1 protease (Human immunodeficiency virus type 1 group M subtype B, UniProt P04585); assay: HIV-1 protease inhibition; type: biochemical
[12] = Human alphaherpesvirus 2, Vero cells, cytopathic effect

SMILES: COC(=O)c1nc(-c2csc([C@@H](NC(=O)C3CC3)C(C)C)n2)oc1C [Wang363.43-1]
- TC50 [1]: 500 µg/mL (≈ 1380 µM)
- IC50 [2]: 3.97 µg/mL (≈ 10.9 µM)
- TC50 [3]: 707.11 µg/mL (≈ 1950 µM)
- IC50 ([4]; Human alphaherpesvirus 1, Vero cells, cytopathic effect): 369 µg/mL (≈ 1020 µM)

SMILES: COC(=O)c1nc(-c2csc([C@@H](NC(=O)c3cccs3)C(C)C)n2)oc1C [Wang405.49]
- IC50 [5]: 46 µM
- IC50 [6]: 76 µM
- IC50 [7]: 63.5 µM
- CC50 [8]: 154 µM

SMILES: COC(=O)c1nc(-c2csc([C@@H](NC(=O)c3ccccc3F)C(C)C)n2)oc1C [Wang417.46-J]
- TC50 [1]: >1000 µg/mL
- IC50 [2]: > 86.2 µg/mL
- IC50 [7]: 143 µM
- CC50 [8]: 755 µM

SMILES: COC(=O)c1nc(-c2csc([C@@H](NC(=O)c3cccc(F)c3)C(C)C)n2)oc1C [Wang417.46-P]
- IC50 [9, 12]: 107 µg/mL (≈ 255 µM)
- TC50 [1]: 422.43 µg/mL (≈ 1010 µM)
- IC50 [2]: 0.9 µg/mL (≈ 2.16 µM)
- TC50 [3]: 198.43 µg/mL (≈ 475 µM)

SMILES: COC(=O)c1coc([C@H](C)NC(=O)c2nc(-c3csc([C@@H](NC(=O)C4CCCC4)C(C)C)n3)oc2C)n1 [Wang529.61-1]
- IC50 [9, 12]: 107 µg/mL (≈ 201 µM)
- TC50 [1]: 191.74 µg/mL (≈ 362 µM)
- IC50 [5]: 171 µM
- IC50 [2]: 3.15 µg/mL (≈ 5.95 µM)
- IC50 [7]: 214 µM
- TC50 [3]: 198.43 µg/mL (≈ 375 µM)
- CC50 [8]: 472 µM

SMILES: COC(=O)c1nc(-c2csc([C@@H](NC(=O)c3ccccc3)C(C)C)n2)oc1C [Wang 399.46]
- TC50 [1]: 166.67 µg/mL (≈ 417 µM)
- IC50 [10]: 365 µM
- IC50 [2]: 1.14 µg/mL (≈ 2.85 µM)

SMILES: COC(=O)c1nc(-c2csc([C@@H](NC(=O)COCc3ccccc3)C(C)C)n2)oc1C [Wang 443.52]
- IC50 ([9]; Human alphaherpesvirus 2, Vero): 78.8 µg/mL (≈ 178 µM)
- TC50 [1]: 165.86 µg/mL (≈ 374 µM)
- IC50 [2]: 1.29 µg/mL (≈ 2.91 µM)
- TC50 [3]: 168.24 µg/mL (≈ 379 µM)
- IC50 ([4]; Human alphaherpesvirus 1, Vero): 107 µg/mL (≈ 240 µM)

SMILES: COC(=O)c1coc([C@H](C)NC(=O)c2nc(-c3csc([C@@H](NC(=O)C4CC4)C(C)C)n3)oc2C)n1 [Wang 501.56-1]
- IC50 [9, 12]: 293 µg/mL (≈ 585 µM)
- TC50 [1]: 303.69 µg/mL (≈ 605 µM)
- IC50 [2]: 1.18 µg/mL (≈ 2.35 µM)
- TC50 [3]: 707.11 µg/mL (≈ 1410 µM)

SMILES: COC(=O)c1coc([C@H](C)NC(=O)c2nc(-c3csc([C@@H](NC(=O)c4ccccc4)C(C)C)n3)oc2C)n1 [Wang 537.59]
- TC50 [1]: >1000 µg/mL
- IC50 [2]: 1.29 µg/mL (≈ 2.4 µM)

SMILES: COC(=O)c1coc([C@H](C)NC(=O)c2nc(-c3csc([C@@H](NC(=O)C4CCCCC4)C(C)C)n3)oc2C)n1 [Wang 543.64-1]
- TC50 [1]: 144.34 µg/mL (≈ 266 µM)
- IC50 [2]: 57.8 µg/mL (≈ 106 µM)

SMILES: COC(=O)c1coc([C@H](C)NC(=O)c2nc(-c3csc([C@@H](NC(=O)Cc4ccccc4)C(C)C)n3)oc2C)n1 [Wang 551.62]
- TC50 [1]: 303.69 µg/mL (≈ 551 µM)
- IC50 [2]: 1.18 µg/mL (≈ 2.14 µM)

SMILES: COC(=O)c1coc([C@H](C)NC(=O)c2nc(-c3csc([C@@H](NC(=O)CC4=CCCCC4)C(C)C)n3)oc2C)n1 [Wang 555.65]
- TC50 [1]: 577.35 µg/mL (≈ 1040 µM)
- IC50 [2]: 44.5 µg/mL (≈ 80 µM)

SMILES: COC(=O)c1nc(-c2csc([C@@H](NC(=O)c3csc([C@@H](NC(=O)OC(C)(C)C)C(C)C)n3)C(C)C)n2)oc1C [Wang 577.72]
- IC50 [11]: 57.6 µM
- IC50 [9, 12]: 97.6 µg/mL (≈ 169 µM)
- TC50 [3]: 176.78 µg/mL (≈ 306 µM)

SMILES: COC(=O)c1nc(-c2csc([C@@H](NC(=O)C(C)(C)C)C(C)C)n2)oc1C [Yao379.47]
- TC50 [1]: 577.35 µg/mL (≈ 1520 µM)
- IC50 [2]: 97.8 µg/mL (≈ 258 µM)

SMILES: COC(=O)c1nc(-c2csc([C@@H](NC(=O)CCC=C(C)C)C(C)C)n2)oc1C [Yao405.51]
- TC50 [1]: 577.35 µg/mL (≈ 1420 µM)
- IC50 [2]: 37 µg/mL (≈ 91.3 µM)

SMILES: CCC(=O)N[C@H](c1nc(-c2nc(C(=O)OC)c(C)o2)cs1)C(C)C [Yao 351.42]
- TC50 [1]: 577.35 µg/mL (≈ 1640 µM)
- IC50 [2]: 259 µg/mL (≈ 736 µM)
